In ChEMBL document CHEMBL1201862, “PubChem BioAssay data set” (2004):
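Interpolation was linear, between the two tested concentrations surrounding the appropriate level; five concentrations were tested over 48 hours in 96-well plates. GI50 marks 50% less growth.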 The source made the active and inactive calls. Rule as the data show it: active = GI50 up to about 1.1 µM and inactive = higher.

Columns and labels:
Assay in all cases: DTP human tumour cell line panel, 48 h
786-0 = tested on: 786-0
ACHN = tested on: ACHN
CAKI-1 = tested on: CAKI-1
COLO 205 = tested on: COLO 205
HCC 2998 = tested on: HCC 2998
HL-60 = tested on: HL-60
HOP-62 = tested on: HOP-62
HOP-92 = tested on: HOP-92
KM12 = tested on: KM12
LOX IMVI = tested on: LOX IMVI
MOLT-4 = tested on: MOLT-4
NCI-H460 = tested on: NCI-H460
NCI-H522 = tested on: NCI-H522
NCI/ADR-RES = tested on: NCI/ADR-RES
OVCAR-4 = tested on: OVCAR-4
SF-295 = tested on: SF-295
SF-539 = tested on: SF-539
SK-MEL-2 = tested on: SK-MEL-2
UACC-62 = tested on: UACC-62
SNB-75 = tested on: SNB-75

Measured: GI50

N#Cc1c(N)nc2[nH]nc(N)c2c1-c1ccc(Cl)cc1
inactive: 786-0 7.94 µM | ACHN 2.49 µM | CAKI-1 3.02 µM | COLO 205 1.48 µM | HCC 2998 10 µM | HL-60 9.75 µM | HOP-62 6.75 µM | HOP-92 1.81 µM | KM12 4.12 µM | LOX IMVI 2.83 µM | MOLT-4 2.54 µM | NCI-H460 3.15 µM | NCI-H522 2.56 µM | NCI/ADR-RES 7.66 µM | OVCAR-4 8.95 µM | SF-295 6.03 µM | SF-539 6.38 µM | SK-MEL-2 1.88 µM | UACC-62 1.42 µM

COC(=O)[C@@H]1c2c(oc3cc(CO)cc(O)c3c2=O)C=C[C@H]1O
inactive: 786-0 2.45 µM | CAKI-1 8 µM | COLO 205 5.5 µM | HL-60 2.25 µM | HOP-62 17.9 µM | HOP-92 8.63 µM | KM12 3.71 µM | LOX IMVI 3.32 µM | MOLT-4 4.52 µM | NCI-H460 18.6 µM | NCI-H522 1.84 µM | NCI/ADR-RES 17.9 µM | OVCAR-4 3.52 µM | SF-295 18.4 µM | SF-539 2.67 µM | SK-MEL-2 15.2 µM | SNB-75 17.9 µM | UACC-62 12.3 µM

CNC(=O)/C(C#N)=C(\N)N1CCCC1
inactive: 786-0 > 100 µM | ACHN > 100 µM | CAKI-1 > 100 µM | COLO 205 > 100 µM | HCC 2998 > 100 µM | HL-60 > 100 µM | HOP-62 > 100 µM | KM12 > 100 µM | MOLT-4 > 100 µM | NCI-H460 > 100 µM | NCI-H522 > 100 µM | NCI/ADR-RES > 100 µM | SF-539 > 100 µM | SK-MEL-2 > 100 µM | UACC-62 > 100 µM

CC(=O)O[C@H]1C[C@H]2[C@@H](OC(C)=O)/C=C3\C[C@](C)(C(=O)[C@H](O)C(=C1C)C2(C)C)[C@@H](O)C[C@@H]3OC(=O)[C@H](O)[C@H](c1ccccc1)N(C)C
inactive: 786-0 > 100 µM | ACHN > 100 µM | CAKI-1 > 100 µM | COLO 205 > 100 µM | HL-60 > 100 µM | HOP-62 > 100 µM | HOP-92 > 100 µM | KM12 > 100 µM | LOX IMVI > 100 µM | MOLT-4 > 100 µM | NCI-H460 > 100 µM | NCI-H522 > 100 µM | NCI/ADR-RES > 100 µM | OVCAR-4 > 100 µM | SF-295 > 100 µM | SF-539 > 100 µM | SNB-75 > 100 µM | UACC-62 > 100 µM

COc1ccc(S(=O)(=O)O)cc1NS(=O)(=O)c1ccc(C)cc1
inactive: 786-0 > 100 µM | ACHN > 100 µM | CAKI-1 > 100 µM | COLO 205 > 100 µM | HL-60 > 100 µM | HOP-62 > 100 µM | KM12 > 100 µM | LOX IMVI > 100 µM | MOLT-4 > 100 µM | NCI-H460 > 100 µM | NCI-H522 > 100 µM | NCI/ADR-RES > 100 µM | OVCAR-4 > 100 µM | SF-295 > 100 µM | SF-539 > 100 µM | SK-MEL-2 > 100 µM | SNB-75 > 100 µM | UACC-62 > 100 µM

FC(F)(F)c1nc(-c2ccccc2)oc1Sc1nnc(Sc2oc(-c3ccccc3)nc2C(F)(F)F)s1
inactive: 786-0 28.4 µM | ACHN > 82.2 µM | CAKI-1 30.1 µM | COLO 205 41.1 µM | HCC 2998 > 78.2 µM | HL-60 14.2 µM | HOP-62 > 100 µM | HOP-92 29.4 µM | KM12 > 100 µM | LOX IMVI 10.4 µM | MOLT-4 6.84 µM | NCI-H460 > 100 µM | NCI-H522 18.5 µM | OVCAR-4 14.7 µM | SF-295 > 67.1 µM | SF-539 > 69.8 µM | SK-MEL-2 86.7 µM | SNB-75 37.8 µM | UACC-62 35.2 µM

CC(C)C(/N=C1\CC2CCC1(C(=O)Nc1ccccc1O)C2(C)C)c1ccccc1 (stereo unspecified)
inactive: 786-0 > 10 µM | ACHN > 10 µM | CAKI-1 > 10 µM | COLO 205 > 10 µM | HCC 2998 > 10 µM | HL-60 2.4 µM | HOP-62 > 10 µM | HOP-92 2.23 µM | KM12 > 10 µM | LOX IMVI > 10 µM | MOLT-4 3.18 µM | NCI-H460 7.67 µM | NCI-H522 6.58 µM | OVCAR-4 > 10 µM | SF-295 > 10 µM | SF-539 > 10 µM | SK-MEL-2 > 10 µM | SNB-75 > 10 µM | UACC-62 > 10 µM

CC1=C[C@H]([C@H]2C=C(C)C(C(N)=O)=CN2Cc2c(Cl)cccc2Cl)N(Cc2c(Cl)cccc2Cl)C=C1C(N)=O
inactive: 786-0 > 75 µM | ACHN > 75 µM | CAKI-1 > 75 µM | COLO 205 > 75 µM | HCC 2998 > 75 µM | HL-60 > 75 µM | HOP-62 > 75 µM | HOP-92 16 µM | KM12 55.5 µM | LOX IMVI > 75 µM | MOLT-4 > 75 µM | NCI-H460 > 75 µM | NCI-H522 57.1 µM | NCI/ADR-RES > 75 µM | OVCAR-4 55.5 µM | SF-295 > 75 µM | SF-539 > 75 µM | SK-MEL-2 > 75 µM | UACC-62 > 75 µM

Cc1ccc(N2C(=O)C(O)=C(C(=O)C(C)(C)C)C2c2ccc([N+](=O)[O-])cc2)cc1 (stereo unspecified)
inactive: 786-0 16.3 µM | ACHN 16.6 µM | CAKI-1 3.94 µM | COLO 205 15.7 µM | HCC 2998 17.7 µM | HL-60 12.3 µM | HOP-62 17.3 µM | HOP-92 13.7 µM | KM12 16.7 µM | LOX IMVI 14.9 µM | MOLT-4 7.26 µM | NCI-H460 9.27 µM | NCI/ADR-RES 19.5 µM | OVCAR-4 6.71 µM | SF-295 20.9 µM | SF-539 24.9 µM | SK-MEL-2 24 µM | UACC-62 14.9 µM

NC(=S)c1cccc(C2Nc3ccccc3O2)c1 (stereo unspecified)
inactive: 786-0 > 100 µM | ACHN 40.2 µM | CAKI-1 > 100 µM | COLO 205 > 100 µM | HL-60 12.1 µM | HOP-62 > 100 µM | HOP-92 > 100 µM | KM12 37.2 µM | MOLT-4 41.7 µM | NCI-H460 49.2 µM | NCI-H522 71.1 µM | NCI/ADR-RES 43.9 µM | OVCAR-4 31.5 µM | SF-295 68.9 µM | SF-539 61.1 µM | SK-MEL-2 > 100 µM | SNB-75 > 100 µM | UACC-62 19.5 µM

Cn1c2ccccc2c2ccc3c(c21)C(=O)c1ccccc1C3=O
inactive: 786-0 17.6 µM | ACHN 12.4 µM | CAKI-1 22.2 µM | COLO 205 26.6 µM | HCC 2998 41.9 µM | HL-60 2.75 µM | HOP-62 18 µM | HOP-92 18.9 µM | KM12 27.8 µM | LOX IMVI 15.9 µM | NCI-H522 15.1 µM | NCI/ADR-RES 13.7 µM | OVCAR-4 17.5 µM | SF-295 18.2 µM | SF-539 17.3 µM | UACC-62 16.7 µM

COC1=CC(=O)C2C(C1=O)[C@@H]1c3ccccc3C[C@H]21 (stereo partly specified)
inactive: 786-0 > 100 µM | ACHN > 100 µM | CAKI-1 > 100 µM | COLO 205 > 100 µM | HCC 2998 > 100 µM | HL-60 > 100 µM | HOP-62 > 100 µM | HOP-92 > 100 µM | KM12 > 100 µM | LOX IMVI > 100 µM | MOLT-4 > 100 µM | NCI-H460 > 100 µM | NCI-H522 > 100 µM | OVCAR-4 > 100 µM | SF-295 > 100 µM | SF-539 > 100 µM | SK-MEL-2 > 100 µM | SNB-75 89.9 µM | UACC-62 > 100 µM

Cc1cc(C)nc(/C(=N\NC(N)=O)C(=O)Nc2nc3ccc(C)cc3s2)c1
inactive: 786-0 > 100 µM | ACHN > 100 µM | CAKI-1 > 100 µM | COLO 205 > 47.8 µM | HCC 2998 > 100 µM | HL-60 > 100 µM | HOP-62 > 100 µM | HOP-92 > 100 µM | KM12 > 100 µM | LOX IMVI > 46.6 µM | MOLT-4 > 100 µM | NCI-H460 > 100 µM | NCI-H522 > 93.1 µM | OVCAR-4 > 100 µM | SF-295 > 100 µM | SF-539 > 100 µM | SK-MEL-2 > 100 µM | SNB-75 > 100 µM | UACC-62 > 100 µM

OCC12C3C4C5C3C1C5C42 (stereo unspecified)
inactive: 786-0 > 100 µM | ACHN > 100 µM | CAKI-1 > 100 µM | COLO 205 > 100 µM | HL-60 > 100 µM | HOP-62 > 100 µM | HOP-92 > 100 µM | LOX IMVI > 100 µM | MOLT-4 > 100 µM | NCI-H460 > 100 µM | NCI-H522 > 100 µM | NCI/ADR-RES > 100 µM | OVCAR-4 > 100 µM | SF-295 > 100 µM | SF-539 > 100 µM | SK-MEL-2 > 100 µM | SNB-75 > 100 µM | UACC-62 > 100 µM

C/C(=N\O)c1ccc(Nc2nc3ccccc3c3occc23)cc1
inactive: 786-0 3.8 µM | ACHN 9.82 µM | CAKI-1 3.15 µM | COLO 205 4.66 µM | HCC 2998 4.1 µM | HL-60 2.29 µM | HOP-62 11.3 µM | HOP-92 6.78 µM | KM12 3.77 µM | LOX IMVI 4.23 µM | MOLT-4 3 µM | NCI-H460 1.82 µM | NCI-H522 3.34 µM | NCI/ADR-RES 6.76 µM | SF-295 3.4 µM | SF-539 6.68 µM | SK-MEL-2 12.6 µM | UACC-62 14.7 µM
